According to patent US20170224840A1, “Drug Delivery System Comprising A Cancer Stem Cell-Targeted Carbon Nanotube, Preparation and Use Thereof” (Institute of Pharmacology and Toxicology Academy of …, priority 2014, published 2017):

What was measured:
[1] = tested on: gastric cancer stem cell spheres; experiment: Inhibition of growth of gastric cancer stem cell spheres; format: cell-based, human; conditions: salinomycin 5 μM, 6th day after administration; PBS 433.3±6.0%
Method: (§1) CD44+ cell suspension was inoculated to a low-absorption 24-well plate in an amount of 5×10^4/well, and subjected to suspension culture with DMEM/F12 medium (1% N2, 2% B27, 10 ng/mL bFGF, 20 ng/mL EGF), incubated in a 5% CO2 incubator at 37° C. for 6 days. Medium was replaced every three days. The stem cell spheres with diameter of more than 200 μm were transferred to a 96-well culture plate, one sphere per well.
To the wells of 96-well culture plate, PBS, free salinomycin, SAL-SWNTs-CHI or SAL-SWNTs-CHI-HA were added, respectively, and the concentration of salinomycin in the above preparations was 5 μM. After addition, the 96-well plate was placed in a 37° C., 5% CO2 incubator and incubated continuously. The growth of tumor spheres under these conditions was observed. […] The formula for calculating the inhibition rate of tumor sphere growth was as follows: […], in which dmax was maximum diameter, dmin was minimum diameter; tumor sphere volume change rate %=(Vdayi/Vday0) 100%, in which Vdayi represents the volume of stem cell spheres on the i^th day after administration, and Vday0 represents the volume of stem cell spheres before administration.

CD44− cells = experiment: WST-8 proliferation inhibition, CD44- cells; format: cell-based, human; conditions: 48 h, series of concentrations
Method: (§2) CD44+ cells and CD44-cells sorted from human gastric cancer cell line AGS were seeded in an amount of 5000/well to 96-well plates, and incubated for 24 h at 37° C. in a 5% CO2 incubator. Free salinomycin in a series of concentrations, SAL-SWNTs-CHI, SAL-SWNTs-CHI-HA or blank SWNTs-CHI-HA were added to, and same amount of drug-free culture medium was used as blank control. After the addition, the 96-well plates were incubated for 48 h at 37° C. in a 5% CO2 incubator. After the completion of the cell culture, the plates were taken out and the culture media in the wells were removed. After washing with sterile PBS, 100 μL of PBS and 10 μL of WST-8 reagent were added to each well, and incubation was continued for 2 hours. Optical density (OD) was measured at the wavelength of 450 nm using a microplate reader. The toxicities of various salinomycin preparations on gastric cancer stem cells were evaluated by using the percentages of surviving cells (Survival rate, %) after the addition and culture. The percentages of surviving cells were calculated according to the following formula:
(§3) Inhibition rate=1−Cell survival rate.

[2] = cited from earlier work
CD44+ cells [3] = experiment: WST-8 proliferation inhibition, CD44+ cells; format: cell-based, human; conditions: 48 h, series of concentrations
Method: as §2, §3

AGS cells = experiment: Effect on proportion of CD44+ cells in AGS cells (flow cytometry); format: cell-based, human; conditions: drug concentration 1.0 μM, 48 h; blank control 5.2±0.1%
Method: In order to measure the effects of various salinomycin dosage forms on the expression of CD44 in AGS cells, AGS cells were seeded in 6-well plates at 3×10^5 cells/well. After incubation for 24 h, AGS cells were incubated with free mitomycin, free salinomycin, SAL-SWNTs-CHI or SAL-SWNTs-CHI-HA (drug concentration was 1.0 μM) separately at 37° C. for 48 h. The blank medium was used as control. After incubation, the cells were washed three times with cold PBS, digested with 0.25% trypsin, and then pipetted with PBS to make cell suspensions. The expression rates of CD44 in AGS cells were detected by flow cytometry.

CD44+ cells [4] = experiment: Apoptosis by Annexin V-FITC / propidium iodide flow cytometry; format: cell-based, human; conditions: drug concentration 5.0 μM, 12 h
Method: Flow cytometry was used to detect the apoptosis of gastric cancer stein cells via double-staining method with Annexin V-FITC and propidium iodide (PI), so as to observe the activities of various salinomycin dosage forms in induction of apoptosis of gastric cancer stem cells. CD44+ cells were seeded in a 6-well cell culture plate in an amount of 5×10^5 cells/well (2 ml), and incubated at 37° C. in a 5% CO2 cell incubator for 24 h; and separately added with PBS (pH 7.4, 0.1 M), blank SWNTs-CHI-HA, free salinomycin, SAL-SWNTs-CHI or SAL-SWNTs-CHI-HA (drug concentration: 5.0 μM), and continuously incubated at 37° C. for 12 h in a 5% CO2 cell incubator. The 6-well cell culture plate was removed from the cell culture incubator, the supernatant was carefully sucked up; the cells were washed three times with cold pH7.4 PBS, collected and suspended in 200 μl of binding buffer. 5 μl of Annexin V-FITC and 5 μl of propidium iodide were added in the dark, placed in the dark at room temperature for 15 min, and the apoptotic rate of the cells was detected by flow cytometry.

breast cancer stem cells = conditions: cited from earlier work
[5] = tested on: gastric cancer stem cell spheres; experiment: Penetration of stem cell spheres by laser confocal microscopy; format: cell-based, human; conditions: FITC 5 uM, 12 hours
Method: as §1
Free FITC, FITC-SWNTs-CHI or FITC-SWNTs-CHI-HA were separately added to the wells of a 96-well plate containing stem cell spheres, and the concentration of FITC in the above preparations was 5 uM. After the addition, the 96-well plate was placed in a 37° C., 5% CO2 incubator to continue the culture for 12 hours; then the stem cell spheres were transferred to a glass-bottom dish, 5 stem cell spheres in each group, washed three times with fresh culture medium, and then 100 μl of fresh culture medium was added in each dish; for each stem cell sphere, it was light-cut into layers from the top to the center of the sphere at 10 μm intervals, and FITC fluorescence intensities of different layers were studied.

CC[C@@H](C(=O)[C@@H](C)[C@@H](O)[C@H](C)[C@@H]1O[C@@H]([C@@H](CC)C(=O)O)CC[C@@H]1C)[C@H]1O[C@]2(C=C[C@@H](O)[C@]3(CC[C@@](C)([C@H]4CC[C@](O)(CC)[C@H](C)O4)O3)O2)[C@H](C)C[C@@H]1C [Salinomycin]
Volume change rate of cell spheres [1]: 179.5±5.8% | Inhibitory effect on proliferation of CD44− cells (CD44− cells): strongest inhibitory effect | Water solubility [2]: poor | Inhibitory effect on proliferation of CD44+ cells (CD44+ cells [3]): significant inhibitory effects | Proportion of CD44+ cells after treatment (AGS cells): 1.75±0.21% | Apoptotic rate of gastric cancer stem cells (CD44+ cells [4]): 34.8% | Necrosis rate of gastric cancer stem cells (CD44+ cells [4]): 4.3% | Effect of killing breast cancer stem cells relative to paclitaxel (breast cancer stem cells): more than 100 times

CO[C@@]12[C@H](COC(N)=O)C3=C(C(=O)C(C)=C(N)C3=O)N1C[C@@H]1N[C@@H]12 [mitomycin C]
Proportion of CD44+ cells after treatment (AGS cells): 74.9±1.0%

fluorescein isothiocyanate [free FITC]
FITC fluorescence in stem cell spheres (penetration) [5]: weakest fluorescence intensity
